The experiment concerns the target T1, Recombinant human LTC4 synthase (Homo sapiens, UniProt Q16873).
T1 construct: made in house; host or cells: Pichia pastoris
T1 sequence (Q16873 1-150): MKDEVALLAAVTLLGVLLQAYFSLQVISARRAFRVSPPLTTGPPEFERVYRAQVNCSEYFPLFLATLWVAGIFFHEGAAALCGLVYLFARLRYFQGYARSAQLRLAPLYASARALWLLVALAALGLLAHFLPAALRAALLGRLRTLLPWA
Put plainly: LTC4 synthase in vitro assay (HTRF detection of LTC4). Type of experiment: biochemical. The conditions noted are these: total concentration of title compound in the assay 10 μM; HTRF method. An outline of the steps:
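Pichia-expressed recombinant human LTC4 synthase at 0.5 μg/ml total protein in PBS pH 7.4 with 5 mM GSH, preincubated 10 min at RT with inhibitor (10 μM final). LTA4 (2.5 μM final) was then added for 5 min at RT. LTC4 formed was read by HTRF.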

Molecules are shown by their SMILES.

As to `O=C(Nc1ccc(Oc2ccc(NC(=O)c3cccc(Cl)c3)c(C(=O)O)c2)cc1C(=O)O)c1ccc([N+](=O)[O-])cc1` [2:3, 5-[3-carboxy-4-(4-nitrobenzamido)-phenyloxy]-2-(3-chlorobenzamido)benzoic acid], the inhibition at 10 µM was 100%.
Still for that read-out and setting: the same measure for `CCCCOc1ccc(S(=O)(=O)Nc2ccc(Oc3cccc(CC(=O)NS(=O)(=O)c4ccc(F)c(F)c4)c3)cc2C(=O)O)cc1` [26:4, 2-(4-Butoxybenzenesulfonylamino)-5-{3-[2-(3,4-difluorobenzenesulfonyl-amino)-2-oxoethyl]phenoxy}benzoic acid]: 95%.
On the same count and under the same terms, next, `COc1ccc(S(=O)(=O)Nc2ccc(Oc3ccc(N(C)C(=O)c4ccc(C(C)(C)C)cc4)cc3)cc2C(=O)O)cc1` [21:3, 5-{4-[(4-t-Butyl-benzoyl)-methyl-amino]-phenoxy}-2-(4-methoxy-benzenesulfonylamino)-benzoic acid]: 99%.
As for `COc1cc(Cl)ccc1C(=O)Nc1ccc(Oc2ccc(NC(=O)c3ccc(C(C)(C)C)cc3)cc2)cc1C(=O)O` [8:19, 5-[4-(4-tert-Butylbenzoyl-amino)phenoxy]-2-(4-chloro-2-methoxybenzoylamino)-benzoic acid], the inhibition at 10 µM is 99%.
Turning to `CCCCc1ccc(C(=O)Nc2ccc(Oc3ccc(Nc4ccc(F)cc4)cc3)cc2C(=O)O)cc1` [12:2, 5-(4-(4-fluorophenylamino)-phenoxy)-2-(4-butylbenz-amido)benzoic acid], the “% inh.” value was 94%.
Take `O=C(NS(=O)(=O)c1ccc(F)cc1)c1cccc(Oc2ccc(Nc3ccc(Cl)cc3)c(C(=O)O)c2)c1` [20:8, 5-[3-(4-Fluorobenzenesulfonyl-aminocarbonyl)-phenoxy]-2-(4-chloro-phenylamino)-benzoic acid]: the inhibition at 10 µM came out at 96%.
Take `CN(c1cc(Oc2ccc(NS(=O)(=O)c3cccc(Cl)c3Cl)cc2)cc(C(=O)O)c1)c1ccc(F)c(F)c1` [18:1, 3-[4-(2,3-dichloro-benzenesulfonylamino)-phenoxy]-5-[(3,4-difluoro-phenyl)-methyl-amino]-benzoic acid]: the inhibition at 10 µM was found to be 97%.
Same read-out and setting: next, `CCCCc1ccc(S(=O)(=O)N(C)c2ccc(Oc3ccc(NC(=O)c4ccc(Cl)cc4Cl)c(C(=O)O)c3)cc2)cc1` [11:7, 5-{4-[(4-butylbenzenesulfonyl)-methylamino]phenoxy}-2-(2,4-dichlorobenzoylamino)benzoic acid]: 100%; `Cc1nc(C(F)(F)F)ccc1C(=O)Nc1ccc(Oc2ccc(NC(=O)c3ccc(OC(C)C)cc3)cc2)cc1C(=O)O` [8:14, 5-[4-(4-isopropoxybenzoyl-amino)phenoxy]-2-[(2-methyl-6-trifluoromethylpyridine-3-carbonyl)amino]benzoic acid]: 100%.
For the compound `CCCCOc1ccc(S(=O)(=O)Nc2ccc(Oc3cccc(S(=O)(=O)Nc4ccc(F)c(F)c4)c3)cc2C(=O)O)cc1` [19:2, 2-(4-Butoxy-benzenesulfonylamino)-5-[3-(3,4-difluoro-phenylsufamoyl)-phenoxy]-benzoic acid], the “% inh.” value came to 100%.
With `O=C(O)c1cc(Nc2ccc(F)c(F)c2)cc(Oc2ccc(Nc3ccc(Cl)cc3)cc2)c1` [18:2, 3-[4-(4-Chloro-phenylamino)-phenoxy]-5-(3,4-difluoro-phenylamino)-benzoic acid], the inhibition at 10 µM stood at 97%.
On to `CC(C)Oc1ccc(C(=O)Nc2ccc(Oc3ccc(N(C)C(=O)c4ccc(C(F)(F)F)cc4)cc3)cc2C(=O)O)cc1` [9:4, 5-(4-((N-methyl)-4-trifluoromethyl-benzamido)phenoxy)-2-(4-isopropoxy-benzamido)benzoic acid], for which the inhibition at 10 µM worked out at 99%.
Take `CCCCc1ccc(C(=O)Nc2ccc(Oc3ccc(NC(=O)c4cc(OC)cc(OC)c4)cc3)cc2C(=O)O)cc1` [8:9, 2-(4-butylbenzoylamino)-5-[4-(3,5-dimethoxybenzoylamino)-phenoxy]benzoic acid]: the inhibition at 10 µM stood at 88%.
Turning to `CCCCOc1ccc(S(=O)(=O)Nc2ccc(Oc3cccc(C(=O)NS(=O)(=O)c4ccc(F)cc4)c3)cc2C(=O)O)cc1` [20:7, 2-(4-Butoxy-benzenesulfonylamino)-5-[3-(4-fluoro-benzenesulfonylamino-carbonyl)-phenoxy]-benzoic acid], the inhibition at 10 µM was 94%.
On the same count and under the same terms, the same measure for `O=C(Nc1ccc(Sc2ccc(NC(=O)c3cccc(Cl)c3)c(C(=O)O)c2)cc1C(=O)O)c1cccc(Cl)c1` [13:2, 2-(3-chlorobenzamido)-5-((4-(3-chlorobenzamido)-3-carboxyphenyl)sulfanyl)benzoic acid]: 100%; for `COc1ccc(S(=O)(=O)N(C)c2ccc(Oc3ccc(NC(=O)c4ccc(Cl)cc4)c(C(=O)O)c3)cc2)cc1` [11:13, 2-(4-chlorobenzoylamino)-5-{4-[(4-methoxybenzenesulfonyl)-methylamino]phenoxy}benzoic acid]: 99%.
On the same count and under the same terms, next, `O=C(O)c1cc(Oc2ccc(S(=O)(=O)Nc3ccc(F)c(F)c3)cc2)ccc1NC(=O)c1cccc(Cl)c1Cl` [25:5, 2-(2,3-Dichlorobenzoylamino)-5-[4-(3,4-difluorophenylsulfamoyl)-phenoxy]benzoic acid]: 100%; `O=C(O)c1cc(Oc2ccc(Nc3ccc(Cl)cc3)cc2)ccc1Nc1ccc(Cl)cc1` [12:5, 2-(4-chloro-phenylamino)-5-[4-(4-chloro-phenylamino)-phenoxy]-benzoic acid]: 96%.
Still for that read-out and setting: next, `O=C(Nc1ccc(Oc2ccc(S(=O)(=O)Nc3ccc(F)c(F)c3)cc2)cc1C(=O)O)c1ccc(Cl)cc1Cl` [25:4, 2-(2,4-Dichlorobenzoylamino)-5-[4-(3,4-difluorophenylsulfamoyl)-phenoxy]benzoic acid]: 100%; `CCCCOc1ccc(S(=O)(=O)Nc2ccc(Oc3ccc(NC(=O)c4ccccc4)cc3)cc2C(=O)O)cc1` [21:4, 5-(4-benzoylamino-phenoxy)-2-(4-butoxy-benzenesulfonylamino)-benzoic acid]: 100%; `O=C(Nc1ccc(C(F)(F)F)cc1)Nc1ccc(Oc2ccc(S(=O)(=O)Nc3ccc(Cl)cc3)cc2)cc1C(=O)O` [25:1, 5-[4-(4-Chlorophenylsulfamoyl)-phenoxy]-2-[3-(4-trifluoromethyl-phenyl)ureido]benzoic acid]: 98%.
For the compound `CCCCN(c1ccc(Oc2ccc(Nc3ccc(Cl)cc3)c(C(=O)O)c2)cc1)c1ccc(F)c(F)c1` [24:2], the “% inh.” value was found to be 95%.
As to `CCOc1c(Cl)cc(C(F)(F)F)cc1C(=O)Nc1ccc(Oc2ccc(NC(=O)c3ccc(OC(C)C)cc3)c(C(=O)O)c2)cc1CC(=O)O` [6:7, 5-[3-carboxymethyl-4-(3-chloro-2-ethoxy-5-tri-fluoromethylbenzoyl-amino)phenoxy]-2-(4-isopropoxybenzoyl-amino)benzoic acid], the inhibition at 10 µM was 100%.
On to `CC(C)(C)c1ccc(C(=O)Nc2ccc(Oc3ccc(NC(=O)c4ccc(Cl)cc4Cl)c(C(=O)O)c3)cc2)cc1` [Example 8:1, 5-(4-(4-tert-butylbenzamido)-phenoxy)-2-(2,4-dichlorobenz-amido)benzoic acid], for which the “% inh.” value is reported as 100%.
On to `CCCCOc1ccc(S(=O)(=O)Nc2ccc(Oc3ccc(S(=O)(=O)Nc4ccc(Cl)cc4)cc3)cc2C(=O)O)cc1` [25:2, 2-(4-Butoxy-benzenesulfonyl-amino)-5-[4-(4-chlorophenylsulfamoyl)phenoxy]benzoic acid], for which the inhibition at 10 µM was 100%.
Turning to `CC(C)(C)c1ccc(C(=O)Nc2ccc(Oc3ccc(NC(=O)c4ccccc4Cl)c(C(=O)O)c3)cc2)cc1` [Example 8:15, 5-[4-(4-tert-Butylbenzoyl-amino)phenoxy]-2-(2-chloro-benzoylino)benzoic acid], the “% inh.” value was 98%.
Regarding `COc1ccc(S(=O)(=O)N(C)c2ccc(Oc3ccc(NC(=O)c4cccc(Cl)c4)c(C(=O)O)c3)cc2)cc1` [11:14, 2-(3-Chloro-benzoylamino)-5-{4-[(4-methoxy-benzenesulfonyl)-methyl-amino]-phenoxy}-benzoic acid], the inhibition at 10 µM turned out to be 100%.
Same read-out and setting: next, `O=C(NS(=O)(=O)c1ccc(F)c(F)c1)c1cccc(Oc2ccc(Nc3ccc(Cl)cc3)c(C(=O)O)c2)c1` [20:2, 2-(4-Chloro-phenylamino)-5-[3-(3,4-difluoro-benzenesulfonylamino-carbonyl)-phenoxy]-benzoic acid]: 96%; `COc1ccc(S(=O)(=O)N(C)c2ccc(Oc3ccc(NC(=O)c4cc(Cl)cnc4Cl)c(C(=O)O)c3)cc2)cc1` [11:21, 2-[(2,5-Dichloropyridine-3-carbonyl)amino]-5-{4-[(4-methoxybenzenesulfonyl)-methylamino]phenoxy}benzoic acid]: 96%; `CC(C)Oc1ccc(C(=O)Nc2ccc(Oc3ccc(NC(=O)c4ccc(Cl)cc4Cl)c(CC(=O)O)c3)cc2C(=O)O)cc1` [6:6, 5-[3-carboxymethyl-4-(2,4-dichloro-benzoyl-amino)phenoxy]-2-(4-isopropoxybenzoyl-amino)benzoic acid]: 98%.
On to `O=C(O)c1cc(Oc2ccc(N(c3ccc(C(=O)C4CC4)cc3)c3ccc(C(=O)C4CC4)cc3)cc2)ccc1Nc1ccc(C(=O)C2CC2)cc1` [12:4, 5-{4-[bis-(4-cyclopropane-carbonyl-phenyl)-amino]-phenoxy}-2-(4-cycloprop-anecarbonyl-phenylamino)-benzoic acid], for which the inhibition at 10 µM was determined as 87%.
Same read-out and setting: next, `O=C(O)c1cc(Oc2ccc(Nc3ccc(F)c(F)c3)cn2)ccc1Nc1ccc(F)c(F)c1` [Example 33:1, 2-(3,4-Difluorophenylamino)-5-[5-(3,4-difluorophenylamino)pyridin-2-yloxy]-benzoic acid]: 97%.
The same measure, in the same setting: the same measure for `O=C(Nc1ccc(Oc2ccc([N+](=O)[O-])cc2)cc1C(=O)O)c1ccc(Cl)cc1Cl` [8:2, 2-(2,4-dichlorobenzamido)-5-(4-nitrophenoxy)benzoic acid]: 93%.

As usually defined, the inhibition is the change of the read-out against control, counted positive when it falls.

Values taken from patent US20110071197A1, “BIS-ARYL COMPOUNDS FOR USE AS MEDICAMENTS” (priority 2008, published 2011).
